10 compounds from ChEMBL document CHEMBL1201862, “PubChem BioAssay data set” (2004) can be followed below.

Test systems include SN12C; NCI-H23; TK-10; KM12; UACC-257; LOX IMVI; EKVX; MDA-MB-435; Hs-578T; MCF7; SF-295; 786-0; SK-OV-3; SW-620; RPMI-8226; MDA-MB-231; SK-MEL-5; CAKI-1; OVCAR-8; CCRF-CEM.
Assay in all cases: DTP human tumour cell line panel, 48 h

Each structure is given as a SMILES string.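 Cultured in 96-well plates, cells were exposed to test compound for 48 hours across five concentrations. At the GI50, growth is halved.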 Calls of active or inactive are those of the source. Cut-off read from the data, not from the text of the source: active = GI50 up to about 1.1 µM and inactive = higher.

The term GI50 denotes the concentration at which growth is held to half of that of the control.

`c1ccc2[nH]c3nc4ccccc4c-3cc2c1`: the GI50 in the assay on SN12C was 0.63 µM (active); in the assay with NCI-H23, 0.615 µM (active); in the assay on TK-10, 1.54 µM (inactive); in the assay on KM12, 0.348 µM (active); in the assay with UACC-257 it was 0.637 µM (active); in the assay with LOX IMVI, 0.18 µM (active). The concentration for 50% growth inhibition (GI50) is 0.395 µM (active) with EKVX; 0.54 µM (active) in the assay on MDA-MB-435; 0.966 µM (active) in the assay with Hs-578T; 0.304 µM (active) in the assay with MCF7; 0.5 µM (active) with SF-295; 0.0199 µM (active) in the assay on 786-0. Also, the 50% growth inhibitory concentration (GI50) with SK-OV-3 is 0.839 µM (active); in the assay on SW-620, 0.156 µM (active); in the assay with RPMI-8226, 0.327 µM (active); with MDA-MB-231 it was 1.24 µM (inactive); in the assay on SK-MEL-5, 0.698 µM (active); in the assay on CAKI-1, 0.524 µM (active). The 50% growth inhibitory concentration (GI50) with OVCAR-8 is 0.363 µM (active); in the assay with CCRF-CEM, 0.197 µM (active).

As for `CCCCCCCCCCCCCCCCNc1nc(=O)n(C2CC(O)C(CO)O2)cc1F` (stereo not given), the GI50 was 12.5 µM (inactive) with SN12C; 4.85 µM (inactive) in the assay with NCI-H23; 11.9 µM (inactive) with TK-10; 13.8 µM (inactive) in the assay with KM12; 16.7 µM (inactive) with UACC-257; 10.5 µM (inactive) in the assay on LOX IMVI. Further, the GI50 was 14.6 µM (inactive) in the assay on EKVX; 12.2 µM (inactive) in the assay with MDA-MB-435; 17.4 µM (inactive) with Hs-578T; 1.33 µM (inactive) with MCF7; 16.5 µM (inactive) with SF-295; 2.88 µM (inactive) with 786-0. The GI50 is 13.5 µM (inactive) in the assay with SK-OV-3; 13 µM (inactive) with SW-620; 15.8 µM (inactive) with RPMI-8226; 21.7 µM (inactive) with MDA-MB-231; 11.6 µM (inactive) in the assay on SK-MEL-5; 2.1 µM (inactive) in the assay with CAKI-1. The results for the GI50 in the assay on OVCAR-8 and with CCRF-CEM were 1.82 µM (inactive) and > 10 µM (inactive), respectively.

For `CC(=O)NC(CS/N=N/c1[nH]cnc1C(N)=O)C(=O)O` (stereo not given), the GI50 in the assay with SN12C is 3.21 µM (inactive); in the assay on NCI-H23, 38.9 µM (inactive); with TK-10 it was 1.75 µM (inactive); with KM12, 6.71 µM (inactive); in the assay with UACC-257, 39.3 µM (inactive); with LOX IMVI it was 0.343 µM (active). The GI50 in the assay with EKVX is 54.5 µM (inactive); in the assay with MDA-MB-435, 10.4 µM (inactive); in the assay on Hs-578T, 16.2 µM (inactive); with MCF7, > 46.8 µM (inactive); with SF-295, 4.16 µM (inactive); in the assay with 786-0, 13 µM (inactive). Moreover, the GI50 in the assay on SK-OV-3 is 2.15 µM (inactive); with SW-620, 6.15 µM (inactive); in the assay on RPMI-8226 it was 1.46 µM (inactive); in the assay on MDA-MB-231, 2.2 µM (inactive); in the assay with SK-MEL-5, 27 µM (inactive); in the assay on CAKI-1, 2.55 µM (inactive). Moreover, the GI50 is 2.06 µM (inactive) with OVCAR-8 and 2.14 µM (inactive) in the assay with CCRF-CEM.

For `C/C(=N\NC(=[Se])N(C)C)c1ccccn1`, the GI50 in the assay on SN12C is 0.0143 µM (active); in the assay on NCI-H23, < 0.01 µM (active); in the assay on TK-10 it was 1.87 µM (inactive); in the assay on KM12 it was 0.0234 µM (active); in the assay with UACC-257, < 0.01 µM (active); in the assay with LOX IMVI it was < 0.01 µM (active). Also, the 50% growth inhibitory concentration (GI50) was 0.0703 µM (active) with EKVX; 1.11 µM (active) in the assay with MDA-MB-435; 0.208 µM (active) with Hs-578T; < 0.01 µM (active) in the assay on MCF7; < 0.01 µM (active) with SF-295; 0.0559 µM (active) with 786-0. Further, the GI50 was 0.0216 µM (active) in the assay on SK-OV-3; < 0.01 µM (active) with SW-620; < 0.01 µM (active) in the assay with RPMI-8226; 0.0131 µM (active) with MDA-MB-231; 0.0263 µM (active) with SK-MEL-5; 0.188 µM (active) in the assay with CAKI-1. For the same compound, the GI50 with OVCAR-8 and in the assay on CCRF-CEM was < 0.01 µM (active) throughout.

Turning to `Cc1cc(C)nc(NS(=O)(=O)c2ccc(NNc3c4ccccc4nc4c(C(=O)Nc5ccc(S(N)(=O)=O)cc5)cccc34)cc2)n1`, the GI50 is 29.9 µM (inactive) in the assay with SN12C; 21.2 µM (inactive) in the assay with NCI-H23; 69.2 µM (inactive) with TK-10; 34 µM (inactive) in the assay with KM12; > 100 µM (inactive) in the assay on UACC-257; 19.2 µM (inactive) with LOX IMVI. Also, the GI50 was 45.2 µM (inactive) in the assay with EKVX; 47.2 µM (inactive) with MDA-MB-435; 64.1 µM (inactive) with Hs-578T; 53.5 µM (inactive) in the assay with MCF7; 54 µM (inactive) with SF-295; 66.5 µM (inactive) with 786-0. For the same compound, the GI50 in the assay with SK-OV-3 was 47.1 µM (inactive); in the assay with SW-620, 45.3 µM (inactive); in the assay with RPMI-8226, 23.3 µM (inactive); in the assay with MDA-MB-231, 13.3 µM (inactive); in the assay on SK-MEL-5, 30.5 µM (inactive); with CAKI-1, 50.1 µM (inactive). For the same compound, the GI50 in the assay with OVCAR-8 is 34.4 µM (inactive); in the assay on CCRF-CEM, 20.2 µM (inactive).

As for `C=CCC1CC(n2cc(C)c(=O)[nH]c2=O)OC1CO[Si](C)(C)C(C)(C)C` (stereo not given), the GI50 with SN12C is 15 µM (inactive); with NCI-H23, 12.5 µM (inactive); in the assay with TK-10, 15.8 µM (inactive); in the assay with KM12 it was 12 µM (inactive); in the assay on UACC-257, 17.2 µM (inactive); in the assay with LOX IMVI, 13 µM (inactive). Moreover, the GI50 with EKVX is 7.52 µM (inactive); in the assay with MDA-MB-435, 13.4 µM (inactive); with Hs-578T, 12.6 µM (inactive); with MCF7, 11.5 µM (inactive); with SF-295, 17.6 µM (inactive); in the assay on 786-0, 15.2 µM (inactive). Moreover, the GI50 in the assay on SK-OV-3 is 14 µM (inactive); with SW-620, 16.1 µM (inactive); with RPMI-8226 it was 11.9 µM (inactive); in the assay with MDA-MB-231, 13.7 µM (inactive); with SK-MEL-5 it was 15.4 µM (inactive); in the assay on CAKI-1 it was 13.7 µM (inactive). Further, the values for the GI50 with OVCAR-8 and with CCRF-CEM were 15.1 µM (inactive) and 12.1 µM (inactive), respectively.

Regarding `CCOP(=O)(OCC)C(C)(C)N(C)/C(F)=N/C(F)(F)F`, the GI50 in the assay on SN12C, with NCI-H23, in the assay with TK-10, with KM12, with UACC-257 and in the assay with LOX IMVI was > 100 µM (inactive) each time. Further, the GI50 in the assay with EKVX, in the assay on MDA-MB-435, in the assay with Hs-578T, in the assay on MCF7, in the assay with SF-295 and in the assay on 786-0 was > 100 µM (inactive) each time. The GI50 with SK-OV-3, with SW-620, in the assay with RPMI-8226, with MDA-MB-231, with SK-MEL-5 and with CAKI-1 was > 100 µM (inactive) each time. Moreover, the GI50 with OVCAR-8 and with CCRF-CEM was > 100 µM (inactive) each time.

On to `CN(C)c1ccc(C(Cc2ccccc2)C2NC(=S)NC2=O)cc1` (stereo not given), for which the GI50 in the assay with SN12C, with NCI-H23, in the assay on TK-10, in the assay on KM12, in the assay with UACC-257 and with LOX IMVI was > 100 µM (inactive) each time. For the same compound, the GI50 in the assay on EKVX was > 100 µM (inactive); in the assay with MDA-MB-435, > 75.7 µM (inactive); with Hs-578T it was 91.8 µM (inactive); in the assay with MCF7 it was > 100 µM (inactive); in the assay with SF-295, > 95.7 µM (inactive); in the assay on 786-0, > 100 µM (inactive). The GI50 with SK-OV-3 is 76.9 µM (inactive); with SW-620, > 100 µM (inactive); in the assay on RPMI-8226, 97.7 µM (inactive); in the assay on MDA-MB-231, > 100 µM (inactive); in the assay with SK-MEL-5, > 100 µM (inactive); in the assay with CAKI-1, > 100 µM (inactive). Also, the GI50 in the assay on OVCAR-8 and in the assay on CCRF-CEM was > 100 µM (inactive) each time.

Turning to `C/C=C(/C)C(=O)O[C@@H]1CCN2CC[C@H](COC(=O)/C(=C/C)CO)C12` (stereo not given in full), the GI50 in the assay on SN12C was > 100 µM (inactive); with NCI-H23 it was > 100 µM (inactive); in the assay on TK-10 it was > 100 µM (inactive); in the assay with KM12, > 100 µM (inactive); in the assay with UACC-257, > 53.8 µM (inactive); in the assay on LOX IMVI, 61.8 µM (inactive). Besides, the GI50 in the assay on EKVX is > 100 µM (inactive); with MDA-MB-435, 63.1 µM (inactive); in the assay on Hs-578T, 36.6 µM (inactive); with MCF7, > 100 µM (inactive); in the assay with SF-295 it was > 89.1 µM (inactive); with 786-0 it was > 95.3 µM (inactive). The GI50 in the assay with SK-OV-3 is > 100 µM (inactive); in the assay with SW-620, > 100 µM (inactive); in the assay on RPMI-8226 it was 33.5 µM (inactive); with MDA-MB-231, > 100 µM (inactive); in the assay on SK-MEL-5, 26.9 µM (inactive); with CAKI-1, > 100 µM (inactive). Moreover, the GI50 in the assay on OVCAR-8 was > 100 µM (inactive); in the assay with CCRF-CEM, 37.7 µM (inactive).

In the case of `CCOC(=O)C(NS(=O)(=O)c1ccccc1)(C(F)(F)F)P(=O)(OCC(C)C)OCC(C)C` (stereo not given), the GI50 with SN12C, in the assay with NCI-H23, with TK-10, in the assay on KM12, in the assay on UACC-257 and with LOX IMVI was > 100 µM (inactive) each time. For the same compound, the GI50 in the assay on EKVX, in the assay on MDA-MB-435, in the assay with Hs-578T, in the assay on MCF7, in the assay with SF-295 and with 786-0 was > 100 µM (inactive) in each case. Also, the GI50 with SK-OV-3, in the assay with SW-620, in the assay with RPMI-8226, with MDA-MB-231, in the assay with SK-MEL-5 and with CAKI-1 was > 100 µM (inactive) in each case. Moreover, the GI50 in the assay with OVCAR-8 and with CCRF-CEM was > 100 µM (inactive) each time.
